The values below are quoted from earlier work in patent US20150313903A1, “METHODS OF TREATING COGNITIVE IMPAIRMENT ASSOCIATED WITH NEURODEGENERATIVE DISORDERS” (Ovid Therapeutics Inc., priority 2014, published 2015).

Like-named read-outs stand apart in the source and are kept apart here.

For data set [1] the following is noted: in vivo.
For data set [2] the following is noted: in vivo. This is another data set of the same source.
The target of the next data set is serotonin-S2 receptor (Rattus norvegicus, UniProt P14842). Conditions: in vivo; dose as low as.
Test in data set [3]: not given
The source holds these as a separate data set.

For data set [4] the following is noted: MPTP model of parkinsonism in mice.
The conditions of data set [5]: generalized anxiety disorders, versus control subjects.
For data set [6] the following is noted: in vivo. This is another data set of the same source.
The conditions of data set [7]: alcoholics.
The conditions of data set [8]: classical conditioning model.
The next data set concerns BDNF. Particulars: in vivo.
The target in the next data set is T1, dopamine transporter (Homo sapiens, UniProt Q01959).
T1 construct: host or cells: prefrontal cortex
Conditions: within the prefrontal cortex (PFC).

For data set [9] the following is noted: direct injection into the hippocampus, rats.
The conditions of data set [10]: subjects taking ritanserin.
The conditions of data set [11]: several trials, monotherapy.
On the set-up of data set [12]: key: *: shown to have a beneficial effect in ALS. Conditions: in vivo.
The mark [13] stands for this setting: acute dose 10 mg, healthy volunteers.
Setting [14] is: Parkinson's patients, later studies.
The mark [15] stands for this setting: open pilot trial, parkinsonian patients.

T1 sequence (Q01959 whole entry): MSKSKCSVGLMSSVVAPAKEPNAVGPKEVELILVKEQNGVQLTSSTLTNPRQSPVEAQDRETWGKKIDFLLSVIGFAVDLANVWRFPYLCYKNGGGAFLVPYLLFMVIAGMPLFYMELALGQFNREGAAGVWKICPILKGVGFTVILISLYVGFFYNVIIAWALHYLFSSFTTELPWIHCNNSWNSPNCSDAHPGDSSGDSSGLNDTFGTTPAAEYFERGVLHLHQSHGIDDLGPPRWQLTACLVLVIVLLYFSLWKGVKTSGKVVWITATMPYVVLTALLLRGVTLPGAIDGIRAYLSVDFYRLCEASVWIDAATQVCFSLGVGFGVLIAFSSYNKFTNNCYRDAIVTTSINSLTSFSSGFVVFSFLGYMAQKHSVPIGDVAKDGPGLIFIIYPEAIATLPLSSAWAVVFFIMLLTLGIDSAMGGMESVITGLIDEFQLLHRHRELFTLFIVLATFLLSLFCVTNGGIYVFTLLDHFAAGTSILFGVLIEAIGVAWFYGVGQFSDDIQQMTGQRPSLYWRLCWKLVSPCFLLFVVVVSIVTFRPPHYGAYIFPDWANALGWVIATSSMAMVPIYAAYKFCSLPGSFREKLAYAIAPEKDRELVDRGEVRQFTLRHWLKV
serotonin-S2 receptor, sequence (P14842 whole entry): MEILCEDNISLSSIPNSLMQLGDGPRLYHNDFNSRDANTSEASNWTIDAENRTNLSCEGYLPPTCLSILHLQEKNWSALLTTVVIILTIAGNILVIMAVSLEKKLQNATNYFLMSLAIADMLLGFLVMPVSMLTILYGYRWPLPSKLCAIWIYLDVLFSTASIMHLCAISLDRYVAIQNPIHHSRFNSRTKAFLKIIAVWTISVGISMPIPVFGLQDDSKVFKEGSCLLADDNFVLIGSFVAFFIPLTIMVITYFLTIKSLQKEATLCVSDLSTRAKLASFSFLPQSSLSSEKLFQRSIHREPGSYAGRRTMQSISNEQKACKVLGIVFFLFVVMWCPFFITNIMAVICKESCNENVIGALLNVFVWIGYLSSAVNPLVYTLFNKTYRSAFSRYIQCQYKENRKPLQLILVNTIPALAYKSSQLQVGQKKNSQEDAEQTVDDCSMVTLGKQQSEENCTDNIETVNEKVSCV

On to `CC(C)COc1ccc(CNC(=O)N(Cc2ccc(F)cc2)C2CCN(C)CC2)cc1` [Pimavanserin], for which the “efficacy in psychosis associated with Parkinson's disease” value in data set [1] is recorded as “effective”. In addition, in data set [2], the “reversing PCP-induced deficits” value is reported as “no activity”.

In the case of `Cc1nc2sccn2c(=O)c1CCN1CCC(=C(c2ccc(F)cc2)c2ccc(F)cc2)CC1` [ritanserin, 6-[2-[4-[bis(4-fluorophenyl)methylene]-1-piperidinyl]ethyl]-7-methyl-5H-thiazolo[3,2-a]pyrimidin-5-one], the “dose giving 50% serotonin-S2 receptor occupation” value at serotonin-S2 receptor is 0.08 m/kg. The “effect on REM sleep” value under setting [13] is on record as “decreased REM sleep”. Also, the “effect on Stage 2 sleep” value under setting [13] is reported as “decreased Stage 2 sleep”. Under setting [13], the “effect on slow-wave sleep” value was “increased slow-wave sleep”. Also, the “increase in SWS during the night, on average” value (administered just before bedtime) is recorded as “about 52 minutes” and the “increase in SWS during the night, on average” value (morning administration) is recorded as “about 94 minutes”. In addition, for the setting “after morning administration”, the “psychomotor sedation during the day” value is on record as “no psychomotor sedation”. Under “after repeated administration”, the “tolerance to the sleep-enhancing effects” value was “no tolerance”. The SWS duration result (at clinical doses) is “can double SWS duration”. The “average increase in slow-wave sleep” value runs as follows: (dose 1 mg) 53 min; (dose 3 mg) 82 min; (dose 10 mg) 101 min; (dose 30 mg) 136.5 min. The bradykinesia result in data set [3] (setting [14]) is reported as “reduced bradykinesia”. The gait entry in data set [3] (setting [14]) is reported as “improved gait”. Further, the L-Dopa-induced dyskinesia entry in [3] (setting [15]) is on record as “reduced L-Dopa-induced dyskinesia”. Further, in data set [3] (setting [15]), the “tremor, rigidity, or akinesia” value is recorded as “no significant modifying”. In addition, the motor deficit result in data set [4] is “reduced motor deficit”. Further, the “self-rating of treated subjects” value in [5] was “calmer, more relaxed, and more energetic than control subjects”. Further, the “blocking the physiological effects of LSD” value in [6] was “some activity”. Further, the “outcome of Phase 3 trial for alcohol abstinence” value in data set [7] is listed as “failed a Phase 3 trial”. Moreover, the effect on learning result in data set [8] was “impair learning”; in [9], “inhibit learning”. Moreover, the “expression of brain (hippocampal) BDNF” value with BDNF is listed as “increases the expression”. In addition, on dopamine transporter, the “inhibition of the dopamine transporter” value is “selectively inhibit the dopamine transporter”. Moreover, in data set [10], the weight gain result was “Weight gain is not observed”. Moreover, the efficacy in schizophrenia entry in [11] was “did show efficacy”.

On to `Nc1nc2ccc(OC(F)(F)F)cc2s1` [Riluzole, 2-amino-6-(trifluoromethoxy) benzothiazole], for which the “beneficial effect in ALS (asterisk mark)” value in [12] is given as “*Riluzole”.
